# Experimental data published in patent US12630555B2, “Substituted pyrrolo[1,2-a]quinoxalin-4(5H)-ones as CX3CR1 antagonists” (Drexel University, priority 2017, dated 2026).
# Where “and” joins values, the source holds several entries; their conditions need not be identical. Identical values can stand only once. Like-named read-outs stand apart in the source and are kept apart here.
# Experiments:
# disseminated tumors [1] = assay type: in vivo
# Protocol: (§1) One week after intracardiac injection, animals were randomly assigned to control and treated group and then imaged for tumors in the skeleton and soft-tissue organs. Vehicle or Compound XXII (10 mg/kg) were administered i.p. twice/day, for the entire duration of the study and animals were imaged weekly. Doxorubicin was purchased from LEK Laboratories (D5794), dissolved in PBS at 1 mg/ml and stored at −20° C. before use. All experiments were performed in agreement with NIH guidelines for the humane use of animals. The Drexel University College of Medicine Committee approved all protocols involving the use of animals for the Use and Care of Animals.
# Mice harboring 1-week disseminated tumors were treated with the anthracycline antibiotic Doxorubicin (5 mg/Kg, i.p., q.w.), alone or in combination with Compound XXII (10 mg/Kg, i.p., b.i.d.) for the entire duration of the study. […] When the effects on both number of tumors and tumor burden were examined. […] It could be argued that this lack of effect shown by the chemotherapeutic drug was likely attributable to the short length of treatment, shorter than common protocols used in oncology practice. […] The acute toxicity of Doxorubicin precluded longer experiments. In order to test whether retaining cancer cells in the blood circulation by targeting CX3CR1 could extend their exposure to chemotherapeutics, the fluorescent properties of Doxorubicin were utilized and the red-spectrum emitted fluorescence of CTCs was collected at steady state from mice harboring disseminated tumors which were treated with Doxorubicin (alone, one hour after or three hours prior to administration of Compound XXII). CTCs were collected—independently of the type of treatment—four hours after Doxorubicin administration.
# [2] = system: MDA-231 human breast cancer cells; experiment: Model of tumor seeding: MDA-231 cells inoculated intracardially, DTCs in skeleton at 24 hours; settings: for reduction in DTCs vs vehicle: 24 hours; for seeding of the skeleton by MDA-231 breast cancer cells: SCID mice, i.p. one hour before and 3 hours after inoculation (Compound XXII 10 mg/kg)
# Protocol: Female SCID mice (Taconic CB17-SCRF, ˜20 g body weight) were housed in a germfree barrier. At 6 weeks of age, mice were anesthetized with a mixture of ketamine (80 mg/kg) and xylazine (10 mg/kg). […] After intracardiac injection, the experimenter distributed each animal in unlabeled cages. Each cage was randomly assigned to different treatment groups by a second experimenter.
# The dosing regimen was selected based on results from pharmacokinetic analyses. […] For the detection and enumeration of single cancer cells, the experimenter was not blinded but was assisted by the Nuance FX multiplex imaging software (see below). A fluorescence image was acquired for each tissue section analyzed, approximately 36 serial sections spanning the entire width of each knee-joint. The identification and enumeration of single cells was obtained by three different experimenters, including the Principal Investigator, and occasional discrepancies reconciled prior to compiling the final data.
# Animal model of tumor seeding: SCID mice (Taconic CB17-SCRF, ˜25 g body weight) were housed in a germ-free barrier. At 6 weeks of age, mice were anesthetized with a mixture of ketamine (80 mg/kg) and xylazine (10 mg/kg). Tumor cells were delivered as a 100 μl suspension of serum-free culture medium by carefully accessing the left ventricle of the heart through the chest with an insulin syringe mounting a 30-gauge needle. […] Species- and class-matched irrelevant immunoglobulins (Rabbit IgG, 15 μg/ml, Jackson ImmunoResearch) or DMSO were used for the control groups. […] The dosing regimen was selected based on results from pharmacokinetic analyses. […] Blue-fluorescent beads, 10 μm-polystyrene in diameter (Invitrogen-Molecular Probes) were included in the injection medium and visualized by fluorescence microscopy to validate injection efficiency. Mice showing non-homogenous distribution of or lacking fluorescent beads in tissue sections of lungs and kidneys were removed from the study.
# Soft-tissue organs were then placed either in 30% sucrose for cryoprotection or 1% paraformaldehyde for long-term storage. Bones were decalcified in 0.5M EDTA (Fisher Scientific) for 7 days followed by incubation in 30% sucrose. Tissues were maintained at 4° C. for all aforementioned steps and frozen in O.C.T. medium (Sakura Finetek) by placement over dry-ice chilled 2-methylbutane. Soft-tissue organs as well as knee joints (femora and tibiae) were processed to obtain serial frozen sections, 80 μm in thickness, using a Microm HM550 cryostat.
# Fluorescent images of skeletal metastases were acquired using an Axio Scope.A1 microscope (Zeiss) connected to a Nuance Multispectral Imaging System (PerkinElmer). Digital images were analyzed and processed using the Nuance Software (v. 2.4). […]
# [3] = Pharmacokinetic studies in mice, 10 mg/kg i.p.; settings: 1 hour, vs 10 nM
# Protocol: (§2) Animals were then anesthetized as described above and 300 μl of blood samples were collected by cardiac puncture at the designated time points and transferred in K2EDTA tubes. Blood samples were placed on ice and tested after dilution.
# MDA-231 cells [4] = experiment: Model of metastatic disease: one-week MDA-231 tumors, bioluminescence imaging; assay type: in vivo, mice
# Protocol: as §1
# MDA-231 cells were stably transduced with the pLeGo-IG2-Luc2 vector. Prior to imaging, animals were injected i.p. with 150 mg/kg of D-luciferin (ViVoGlo, Promega) and anesthetized using 3% isoflurane. Animals were then transferred to the chamber of an IVIS Lumina XR (PerkinElmer) where they received 2% isoflurane throughout the image acquisition. Fifteen minutes after injection of the substrate, five-minute exposures of both dorsal and ventral views were obtained and quantification and analysis of bioluminescence was performed using the Living Image software.
# To determine whether the pharmacologic targeting of CX3CR1 with Compound I would produce similar effects, mice were grafted with MDA-231 cells and at the first week post-IC injection were randomized and administered with either vehicle or 10 mg/Kg Compound I i.p. twice daily for three weeks, based on pharmacokinetics studies with this compound. Animals were imaged weekly before being euthanized, and treatment with Compound I led to a reduction in the number of tumor foci and overall tumor burden, at least as effectively as observed using CRISPRi (FIGS. 5A-5B).
# in vivo = settings: mouse, ip, 10 mg/kg
# Protocol: as §2
# MDA-231 cells [5] = experiment: Enumeration of CTCs in blood of tumor-bearing mice after mobilization with AMD-3100; assay type: in vivo; settings: for mobilization of cancer cells (CTCs) into the blood: compound alone, tumor-bearing mice
# Protocol: Blood was withdrawn by cardiac puncture. AMD-3100 was purchased from Selleckchem (S8030) dissolved in PBS at 1 mg/ml and at −20° C. before use. Tumor-bearing animals were anesthetized as described above and 200-250 μl of systemic blood was collected at the designated time points and transferred in K2EDTA tubes. Blood samples were placed on ice, diluted using a saline buffer (0.5% BSA, 2% EDTA in PBS) at a 1:8 ratio and then filtered through a 70 μm cell strainer immediately prior to achieve a label-free, microfluidic isolation of CTCs. For enumeration, the Captor® system (Clearbridge Biomedics, Singapore) was used, which allows visualization of individual CTCs trapped into crescent-shape microwells. Following complete flowing of the diluted blood, the CTChip® was transferred to the stage of an inverted fluorescent microscope and all trapped CTCs were counted. For the recovery of fully viable CTCs we used the ClearCell® FX system (Clearbridge Biomedics, Singapore), which employs the CTChip® FR1 to isolate cancer cells from blood cells based on size, deformability and inertia through a Dean Flow Fractionation process.
# CTCs were lysed on the same microfluidic chip used for capture using an ice-cooled RNA lysis buffer (Norgen Bioteck Corp.). […] Genespecific primers and probe sets were purchased from Applied Biosystem.
# Cancer cells in the blood are a dynamic pool that constantly fluctuates as cells enter circulation upon being dislodged from tumors, reseed additional sites or perish to anoikis if they fail to do so. This makes determining the time spent by cancer cells in the blood problematic. A major hurdle for these types of studies is the limited ability to monitor the timing of CTCs' entry into and egress from the blood during steady-state conditions. To circumvent these issues, cancer cells were acutely mobilized from tumors in the skeleton and soft-tissues in mice—above steady-state counts—and then thereafter the blood was sampled at specific intervals, reasoning that a time-dependent decline of the number of CTCs in the blood would result from cancer cells seeding back to tissues and dying in circulation. […] When spreading via the systemic circulation, cancer cells become susceptible to anoikis and extending the time spent in the blood increases the odds of incurring this form of apoptotic cell death.
# disseminated tumors [6] = experiment: Additional metastatic lesions after AMD-3100 mobilization; assay type: in vivo, mice
# Protocol: Complementary studies were conducted in mice harboring experimental metastases as detected at one week post-grafting, and left either untreated or treated at the second and third week with AMD-3100, alone or in combination with Compound XXII (FIG. 10B). All lesions identified at the fifth week that had not been previously detected at the second week of the experiment were counted and compared among treatment groups.
# disseminated tumors [7] = experiment: Docetaxel alone or with Compound XXII in animals bearing disseminated tumors; assay type: in vivo
# Protocol: Animals bearing disseminated tumors were treated with Docetaxel (2 mg/Kg, i.p., bis in 7 d.) either alone or in combination with Compound XXII (10 mg/Kg i.p., q12h) and compared to Compound XXII alone (FIGS. 11E-11G).
# [8] = system: 4T-1 murine breast cancer cells; experiment: Model of tumor seeding: 4T-1 cells inoculated intracardially in Balb-C mice; assay type: in vivo; settings: 10 mg/kg i.p. one hour before and 3 hours after inoculation
# Protocol: Mice were sacrificed 24 hours post-injection.
# MDA-231 cells [9] = experiment: Reseeding of CTCs to bone and lungs (GFP/CM-Dil double-labeled cells); assay type: in vivo, mice; settings: AMD-3100 with Compound XXII 10 mg/Kg i.p. 1 hr prior and 3 hrs after; 12 or 24 hours
# Protocol: The CellTracker™ CM-Dil (ThermoFisher Scientific) was diluted as 50 μg in 50 μl of DMSO to prepare a stock solution. Immediately before use, the stock solution was diluted with D-PBS to a 1 μM working solution. Cells were exposed to the working solution at 37° C. for 5 minutes and then at 4° C. for 15 minutes and then washed with PBS followed by F-12 cell culture medium.
# Green-fluorescent MDA-231 cells were labeled with the cell-tracker CM-Dil, a widely validated red-fluorescent dye that, while being stably retained by non-dividing cells, is transferred to daughter cells upon mitosis and eventually becomes too diluted and undetectable in rapidly dividing cell populations. Based on these features, GFP/CM-Dil double-labeled cancer cells, when reseeding from established tumors would emit green fluorescence but lack red fluorescence, as the results of high proliferation during tumor growth and consequential dilution of the CM-Dil dye. Cancer cells that became dormant upon seeding different tissues following intracardiac injection would retain the CM-Dil dye, thereby emitting signals in both green and red fluorescent spectra (FIG. 9A). For these experiments, mice were grafted with double-labeled cancer cells in the left cardiac ventricle and allowed to develop tumors for two weeks. […]
# [10] = Doxorubicin alone 5 mg/Kg i.p. q.w., two weeks
# [11] = 10 mg/kg i.p. twice/day from one week post-inoculation, vs vehicle
# [12] = single dose 5 mg/kg, mice with 3-week tumors
# [13] = Doxorubicin 5 mg/Kg q.w. in combination with Compound XXII 10 mg/Kg i.p. b.i.d.
smiles,measurement,setting,value
"COc1cccc2c1C(=O)c1c(O)c3c(c(O)c1C2=O)C[C@@](O)(C(=O)CO)C[C@@H]3O[C@H]1C[C@H](N)[C@H](O)[C@H](C)O1 [Doxorubicin, reference compound]",number of tumors vs control,disseminated tumors [1]; [10],failed to show any significant effect
same,tumor burden vs control,disseminated tumors [1]; [10],failed to show any significant effect
"O=c1c2cccn2c2ccccc2n1CCCN1CCC(c2ccc(Cl)cc2)CC1 [Compound I, 5-(3-(4-(4-chlorophenyl)piperidin-1-yl)propyl)pyrrolo[1,2-a]quinoxalin-4(5H)-one]",reduction in DTCs vs vehicle,"[2]; 10 mg/Kg i.p. twice, one hour prior and three hours after IC inoculation",approximately 60%
same,reduction in DTCs vs vehicle,[2]; MDA-231 cells pre-incubated with 10 nM compound,approximately 60%
same,increase of blood level over lowest fully effective dose in vitro,[3],20 fold
same,number of tumors (tumor foci),MDA-231 cells [4]; [11],reduction
same,overall tumor burden,MDA-231 cells [4]; [11],reduction
same,concentration at 1 h,in vivo; in vivo,89 ng/mL and 210 nM
"c1cc(CN2CCCNCCNCCCNCC2)ccc1CN1CCCNCCNCCCNCC1 [AMD-3100, reference compound]",area under the curve of CTC counts vs time,MDA-231 cells [5]; AMD-3100 alone,345
same,mobilization of cancer cells (CTCs) into the blood,MDA-231 cells [5],rapid increase in the number of CTCs
same,time of peak number of CTCs post-treatment,MDA-231 cells [5]; [12],3 h
same,time of return of CTCs to steady-state counts,MDA-231 cells [5]; [12],48 h
same,seeding of the skeleton by MDA-231 breast cancer cells,[2],unaffected
same,number of additional lesions vs untreated animals,"disseminated tumors [6]; AMD-3100 alone at second and third week, lesions at fifth week",doubled number of additional lesions
"CC(=O)O[C@@]12CO[C@@H]1C[C@H](O)[C@@]1(C)C(=O)[C@H](O)C3=C(C)[C@@H](OC(=O)[C@H](O)[C@@H](NC(=O)OC(C)(C)C)c4ccccc4)C[C@@](O)([C@@H](OC(=O)c4ccccc4)[C@H]21)C3(C)C [docetaxel, reference compound]",tumor growth,disseminated tumors [7]; docetaxel alone 2 mg/Kg i.p. bis in 7 d.,significantly suppressed tumor growth
"O=C1CN(CCCn2c(=O)c3cccn3c3ccccc32)CCN1c1ccc(Cl)cc1 [Compound XXII, 5-(3-(4-(4-chlorophenyl)-3-oxopiperazin-1-yl)propyl)pyrrolo[1,2-a]quinoxalin-4(5H)-one]",seeding of the skeleton by 4T-1 breast cancer cells,[8],severely impaired
same,area under the curve of CTC counts vs time,"MDA-231 cells [5]; AMD-3100 combined with Compound XXII, then Compound XXII alone twice/day",731
same,percentage of apoptotic CTCs (Bax/Bcl-2 ratio) vs AMD-3100 alone,"MDA-231 cells [5]; AMD-3100 in combination with Compound XXII, CTCs collected at 12 and 24 hours",increased the percentage of apoptotic CTCs
same,magnitude of increase in CTC counts vs AMD-3100 alone,MDA-231 cells [5]; Compound XXII co-administered with AMD-3100,more than two-fold higher
same,mobilization of cancer cells (CTCs) into the blood,MDA-231 cells [5],does not mobilize cancer cells back in the blood
same,overall efficacy for lowering total tumor burden,"disseminated tumors [7]; Compound XXII alone 10 mg/Kg i.p. q12h, each time point","comparable to the current standard of care, docetaxel alone"
same,synergistic effects of combination,"disseminated tumors [7]; Docetaxel with Compound XXII, especially after 11 days of treatment",Synergistic effects were observed
same,seeding of the skeleton by MDA-231 breast cancer cells,[2],severely impaired
same,AMD-3100-induced increase of additional lesions,disseminated tumors [6]; AMD-3100 in combination with Compound XXII,ablated
same,"overall tumor burden, % of the levels in the control group",MDA-231 cells [4]; 10 mg/kg i.p. twice/day from one week post-inoculation,below 50%
same,number of tumors (tumor foci),MDA-231 cells [4]; [11],strongly reduced
same,overall tumor burden,MDA-231 cells [4]; [11],strongly reduced
same,overall survival,"MDA-231 cells [4]; 10 mg/kg i.p. twice/day, Kaplan-Meier, vs vehicle",increase in overall survival
same,concentration at 1 h,in vivo; plasma,~200 ng/mL
same,concentration at 6 h,in vivo; plasma,60 ng/mL
same,number of reseeded cancer cells in lung and knee-joints,MDA-231 cells [9],dramatically reduced
same,number of CTCs positive for intracellular Doxorubicin,"disseminated tumors [1]; Compound XXII administered prior to Doxorubicin, CTCs collected four hours after Doxorubicin",significant increase
same,anti-tumor effect compared with Doxorubicin,"disseminated tumors [1]; Compound XXII alone 10 mg/Kg i.p. b.i.d., short period of time",superior anti-tumor effect than Doxorubicin
same,containment of tumor numbers,disseminated tumors [1]; [13],comparable to Compound XXII alone
same,mitigation of tumor burden,disseminated tumors [1]; [13],comparable to Compound XXII alone
same,synergistic effects of combination,disseminated tumors [1]; Doxorubicin combined with Compound XXII,Synergistic effects were minimal
same,tumor burden after one week of treatment vs Compound XXII alone,"disseminated tumors [1]; Doxorubicin in combination with Compound XXII, 1 week",significantly superior effect
